pIC50: −log10 of the molar value.
How the values were obtained:
[1] = biological target: T1, Histone deacetylase 3 (Homo sapiens, UniProt O15379); experiment: Inhibition of human KDAC3 at 30 uM using FITC-labeled p53 acetylated peptide as substrate after 60 mins by fluorescence assay relative to control
[2] = biological target: T2, Protein deacetylase HDAC6 (Homo sapiens) (UniProt Q9UBN7); conditions: at 30 µM
T2 sequence (whole entry): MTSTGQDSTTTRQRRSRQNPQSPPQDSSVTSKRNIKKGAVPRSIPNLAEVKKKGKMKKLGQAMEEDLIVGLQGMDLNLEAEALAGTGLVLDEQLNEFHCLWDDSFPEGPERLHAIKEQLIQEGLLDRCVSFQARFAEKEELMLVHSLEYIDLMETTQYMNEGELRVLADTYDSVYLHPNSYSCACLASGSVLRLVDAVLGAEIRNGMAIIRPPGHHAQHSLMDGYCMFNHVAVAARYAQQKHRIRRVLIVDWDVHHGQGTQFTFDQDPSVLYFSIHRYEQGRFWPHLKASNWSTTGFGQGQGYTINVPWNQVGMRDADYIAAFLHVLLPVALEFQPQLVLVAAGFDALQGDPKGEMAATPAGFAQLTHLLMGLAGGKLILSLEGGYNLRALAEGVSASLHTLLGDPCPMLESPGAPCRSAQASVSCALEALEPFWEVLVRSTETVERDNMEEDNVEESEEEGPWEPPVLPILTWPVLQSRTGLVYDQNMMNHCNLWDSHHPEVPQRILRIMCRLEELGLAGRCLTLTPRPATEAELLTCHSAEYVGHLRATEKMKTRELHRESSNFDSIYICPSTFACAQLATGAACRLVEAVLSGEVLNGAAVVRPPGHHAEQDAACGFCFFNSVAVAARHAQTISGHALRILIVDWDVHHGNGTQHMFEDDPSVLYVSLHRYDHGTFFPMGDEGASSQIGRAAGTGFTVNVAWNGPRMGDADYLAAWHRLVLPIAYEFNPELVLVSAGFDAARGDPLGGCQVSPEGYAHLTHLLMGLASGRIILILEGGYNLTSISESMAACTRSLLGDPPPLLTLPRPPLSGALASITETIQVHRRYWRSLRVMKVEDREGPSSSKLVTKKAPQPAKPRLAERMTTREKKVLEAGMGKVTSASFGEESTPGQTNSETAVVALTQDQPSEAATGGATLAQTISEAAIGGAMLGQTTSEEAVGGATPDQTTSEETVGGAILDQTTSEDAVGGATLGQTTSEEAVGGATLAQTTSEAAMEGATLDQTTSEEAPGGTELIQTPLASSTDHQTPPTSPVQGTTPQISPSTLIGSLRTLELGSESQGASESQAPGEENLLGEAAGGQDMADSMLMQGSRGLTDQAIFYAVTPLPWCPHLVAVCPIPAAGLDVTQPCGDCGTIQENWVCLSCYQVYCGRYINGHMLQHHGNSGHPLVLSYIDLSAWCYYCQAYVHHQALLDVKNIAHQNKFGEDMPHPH
Description: Inhibition of human KDAC6 at 30 uM using FITC-labeled histone H4 acetylated peptide as substrate after 60 mins by fluorescence assay relative to control

[3] = biological target: T3, Histone deacetylase 1 (Homo sapiens, UniProt Q13547); experiment: Inhibition of human KDAC1 using substrate A after 60 mins by fluorescence assay
T3 sequence (Q13547 whole entry): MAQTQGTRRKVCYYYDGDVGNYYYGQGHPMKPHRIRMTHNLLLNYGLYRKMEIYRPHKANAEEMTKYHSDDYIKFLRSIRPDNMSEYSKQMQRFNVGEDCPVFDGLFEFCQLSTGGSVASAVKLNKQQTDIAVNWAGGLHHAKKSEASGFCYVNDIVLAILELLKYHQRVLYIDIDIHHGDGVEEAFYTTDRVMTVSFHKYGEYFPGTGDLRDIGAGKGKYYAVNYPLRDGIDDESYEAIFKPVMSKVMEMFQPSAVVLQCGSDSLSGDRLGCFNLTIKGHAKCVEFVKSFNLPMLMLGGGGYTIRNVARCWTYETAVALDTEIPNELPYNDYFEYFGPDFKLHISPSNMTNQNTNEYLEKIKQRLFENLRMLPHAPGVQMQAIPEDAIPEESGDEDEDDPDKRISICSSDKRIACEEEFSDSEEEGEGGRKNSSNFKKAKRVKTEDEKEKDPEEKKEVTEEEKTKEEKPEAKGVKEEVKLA

[4] = biological target: T3, Histone deacetylase 1; experiment: Inhibition of human KDAC1 at 30 uM using substrate A after 60 mins by fluorescence assay relative to control
[5] = biological target: T4, Histone deacetylase 8 (Homo sapiens, UniProt Q9BY41); experiment: Inhibition of human KDAC8 after 60 mins by fluorescence assay
T4 sequence (Q9BY41 whole entry): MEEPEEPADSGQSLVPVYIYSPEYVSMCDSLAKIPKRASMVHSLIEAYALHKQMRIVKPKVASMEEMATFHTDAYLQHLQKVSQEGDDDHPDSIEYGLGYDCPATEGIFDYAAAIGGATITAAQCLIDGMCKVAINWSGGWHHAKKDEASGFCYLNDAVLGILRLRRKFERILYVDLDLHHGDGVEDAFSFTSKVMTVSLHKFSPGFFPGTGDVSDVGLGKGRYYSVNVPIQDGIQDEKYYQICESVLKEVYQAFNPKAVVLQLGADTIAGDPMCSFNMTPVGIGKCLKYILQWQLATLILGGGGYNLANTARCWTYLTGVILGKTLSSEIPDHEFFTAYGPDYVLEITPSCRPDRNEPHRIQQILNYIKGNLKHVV

[6] = biological target: T5, Protein deacetylase HDAC6 (Homo sapiens, UniProt Q9UBN7); experiment: Inhibition of human KDAC6 using FITC-labeled histone H4 acetylated peptide as substrate after 60 mins by fluorescence assay
T5 sequence (Q9UBN7 whole entry): T2 sequence (whole entry)

[7] = biological target: T6, Histone deacetylase 8 (Homo sapiens) (UniProt Q9BY41); experiment: Inhibition of human KDAC8 at 30 uM after 60 mins by fluorescence assay relative to control
T6 sequence (whole entry): T4 sequence (Q9BY41 whole entry)

[8] = biological target: T1, Histone deacetylase 3; experiment: Inhibition of human KDAC3 using FITC-labeled p53 acetylated peptide as substrate after 60 mins by fluorescence assay

T1 sequence (O15379 whole entry): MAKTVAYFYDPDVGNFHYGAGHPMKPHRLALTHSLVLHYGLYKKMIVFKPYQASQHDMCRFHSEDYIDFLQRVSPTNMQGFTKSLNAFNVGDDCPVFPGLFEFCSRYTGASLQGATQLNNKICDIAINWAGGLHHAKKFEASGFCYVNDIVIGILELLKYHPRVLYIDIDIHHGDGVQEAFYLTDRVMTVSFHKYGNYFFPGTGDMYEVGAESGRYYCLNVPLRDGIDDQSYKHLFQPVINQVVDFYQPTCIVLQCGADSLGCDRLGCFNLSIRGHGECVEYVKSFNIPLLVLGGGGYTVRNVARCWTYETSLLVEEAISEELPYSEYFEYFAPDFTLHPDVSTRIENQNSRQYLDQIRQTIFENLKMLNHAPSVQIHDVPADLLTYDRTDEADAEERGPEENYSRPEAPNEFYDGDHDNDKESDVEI

## O=C(CC[C@@H]1N=C(c2ccccc2)c2ccccc2NC1=O)NO
[1]
  inhibition: 4.57%
[2]
  inhibition: 36.5%
[3]
  pIC50: 4.77
[4]
  inhibition: 64.4%
[5]
  pIC50: < 4.52
[6]
  pIC50: < 4.52
[7]
  inhibition: 43.8%
[8]
  pIC50: < 4.52

## O=C(O)C[C@@H]1N=C(c2ccccc2)c2ccccc2N(CCCCC(=O)NO)C1=O
[1]
  inhibition: 75.5%
[2]
  inhibition: 57.8%
[3]
  pIC50: < 4.52
[4]
  inhibition: 47.9%
[5]
  pIC50: < 4.52
[6]
  pIC50: 4.70
[7]
  inhibition: 39.4%
[8]
  pIC50: 4.90

## COC(=O)CCCCN1C(=O)[C@H](C(C)C)N=C(c2ccccc2)c2ccccc21
[1]
  inhibition: 0%
[2]
  inhibition: 0%
[3]
  pIC50: < 4.52
[4]
  inhibition: 12.5%
[5]
  pIC50: < 4.52
[6]
  pIC50: < 4.52
[7]
  inhibition: 9.56%
[8]
  pIC50: < 4.52

## CC(C)(C)OC(=O)C[C@@H]1N=C(c2ccccc2)c2ccccc2N(CCCCC(=O)NO)C1=O
[1]
  inhibition: 91.5%
[2]
  inhibition: 80.6%
[3]
  pIC50: 4.80
[4]
  inhibition: 64.1%
[5]
  pIC50: 4.65
[6]
  pIC50: 5.19
[7]
  inhibition: 62.3%
[8]
  pIC50: 5.38

## O=C(O)C[C@H]1N=C(c2ccccc2)c2ccccc2NC1=O
[1]
  inhibition: 0%
[2]
  inhibition: 0%
[3]
  pIC50: < 4.52
[4]
  inhibition: 0.74%
[5]
  pIC50: < 4.52
[6]
  pIC50: < 4.52
[7]
  inhibition: 0%
[8]
  pIC50: < 4.52

## O=C(CCCCN1C(=O)[C@H](Cc2cnc[nH]2)N=C(c2ccccc2)c2ccccc21)NO
[1]
  inhibition: 99%
[2]
  inhibition: 84.6%
[3]
  pIC50: 4.86
[4]
  inhibition: 61.4%
[5]
  pIC50: < 4.52
[6]
  pIC50: 5.30
[7]
  inhibition: 42.4%
[8]
  pIC50: 5.88

## CC(C)(C)Oc1ccc(C[C@@H]2N=C(c3ccccc3)c3ccccc3N(CCCCC(=O)O)C2=O)cc1
[1]
  inhibition: 1.05%
[2]
  inhibition: 0.28%
[3]
  pIC50: < 4.52
[4]
  inhibition: 4.65%
[5]
  pIC50: < 4.52
[6]
  pIC50: < 4.52
[7]
  inhibition: 2.15%
[8]
  pIC50: < 4.52

## O=C(CCCCN1C(=O)[C@H](Cc2ccc(O)cc2)N=C(c2ccccc2)c2ccccc21)NO
[1]
  inhibition: 86.4%
[2]
  inhibition: 78.5%
[3]
  pIC50: < 4.52
[4]
  inhibition: 42.9%
[5]
  pIC50: < 4.52
[6]
  pIC50: 5.07
[7]
  inhibition: 14.9%
[8]
  pIC50: 5.28

## CC(C)(C)OC(=O)C[C@@H]1N=C(c2ccccc2)c2ccccc2NC1=O
[1]
  inhibition: 3.95%
[2]
  inhibition: 0%
[3]
  pIC50: < 4.52
[4]
  inhibition: 9.6%
[5]
  pIC50: < 4.52
[6]
  pIC50: < 4.52
[7]
  inhibition: 5.34%
[8]
  pIC50: < 4.52

## CC(C)(C)OC(=O)CC[C@@H]1N=C(c2ccccc2)c2ccccc2N(CCCCC(=O)O)C1=O
[1]
  inhibition: 23.9%
[2]
  inhibition: 0%
[3]
  pIC50: < 4.52
[4]
  inhibition: 7.96%
[5]
  pIC50: < 4.52
[6]
  pIC50: < 4.52
[7]
  inhibition: 9.85%
[8]
  pIC50: < 4.52

## CC(C)(C)Oc1ccc(C[C@@H]2N=C(c3ccccc3)c3ccccc3N(CCCCC(=O)NO)C2=O)cc1
[1]
  inhibition: 98.4%
[2]
  inhibition: 92.1%
[3]
  pIC50: 5.21
[4]
  inhibition: 82%
[5]
  pIC50: 5.48
[6]
  pIC50: 5.54
[7]
  inhibition: 89.9%
[8]
  pIC50: 6.07

## CC[C@@H](C)[C@@H]1N=C(c2ccccc2)c2ccccc2N(CCCCC(=O)NO)C1=O
[1]
  inhibition: 96.4%
[2]
  inhibition: 90.9%
[3]
  pIC50: 4.96
[4]
  inhibition: 75.1%
[5]
  pIC50: < 4.52
[6]
  pIC50: 5.43
[7]
  inhibition: 33.1%
[8]
  pIC50: 5.99

## O=C(O)CC[C@H]1N=C(c2ccccc2)c2ccccc2NC1=O
[1]
  inhibition: 0%
[2]
  inhibition: 0%
[3]
  pIC50: < 4.52
[4]
  inhibition: 10.2%
[5]
  pIC50: < 4.52
[6]
  pIC50: < 4.52
[7]
  inhibition: 0%
[8]
  pIC50: < 4.52

## C[C@@H]1N=C(c2ccccc2)c2ccccc2NC1=O
[1]
  inhibition: 0%
[2]
  inhibition: 0%
[3]
  pIC50: < 4.52
[4]
  inhibition: 7.49%
[5]
  pIC50: < 4.52
[6]
  pIC50: < 4.52
[7]
  inhibition: 0%
[8]
  pIC50: < 4.52

Reference: ChEMBL document CHEMBL3997794, “Design and synthesis of benzodiazepine analogs as isoform-selective human lysine deacetylase inhibitors” (Eur J Med Chem, 2017)
